# Species on record: Rattus norvegicus
# Assay: DrugMatrix - Regimen: Daily Repeat
# Type: toxicity, organism-based, Sprague-Dawley
# Parameters: regimen Daily Repeat, gender Male, age 6-8 weeks
# Conditions: in vivo, po, route oral GAVAGE, vehicle .5 % CMC; for ABSOLUTE BASOPHIL / ABSOLUTE EOSINOPHIL / ABSOLUTE LYMPHOCYTE / ABSOLUTE MONOCYTE / ABSOLUTE SEGMENTED NEUTROPHIL / BASOPHIL / EOSINOPHIL / ERYTHROCYTE COUNT / HEMATOCRIT / HEMOGLOBIN / LEUKOCYTE COUNT / LYMPHOCYTE / MEAN CORPUSCULAR HEMOGLOBIN / MEAN CORPUSCULAR HEMOGLOBIN CONCENTRATION / MEAN CORPUSCULAR VOLUME / MONOCYTE / NEUTROPHIL / NUCLEATED RED BLOOD CELLS / PLATELET COUNT: tissue Blood; for ALANINE AMINOTRANSFERASE / ALBUMIN / ALKALINE PHOSPHATASE / ASPARTATE AMINOTRANSFERASE / BLOOD UREA NITROGEN / CARBON DIOXIDE / CHLORIDE / CHOLESTEROL / CREATINE PHOSPHOKINASE / CREATININE / GLUCOSE / LACTATE DEHYDROGENASE / LIPASE / PHOSPHORUS / POTASSIUM / SODIUM / TOTAL BILIRUBIN / TOTAL PROTEIN / URIC ACID: tissue Plasma
# [1] = 8 mg/kg, 72 h, dose level High, time 3 day
# [2] = 8 mg/kg, 120 h, dose level High, time 5 day
# [3] = […], 72 h, dose 2.1 mg/Kg, dose level Low, time 3 day
# [4] = […], 120 h, dose 2.1 mg/Kg, dose level Low, time 5 day
compound,measurement,setting,value
C=C1CC[C@H](O)C/C1=C/C=C1\CCC[C@]2(C)[C@@H]([C@H](C)CCCC(C)C)CC[C@@H]12 [CHOLECALCIFEROL],ABSOLUTE BASOPHIL,[1],0 CELLS/uL
same,ABSOLUTE EOSINOPHIL,[1],42 CELLS/uL
same,ABSOLUTE LYMPHOCYTE,[1],8592.67 CELLS/uL
same,ABSOLUTE MONOCYTE,[1],336 CELLS/uL
same,ABSOLUTE SEGMENTED NEUTROPHIL,[1],5029.33 CELLS/uL
same,BASOPHIL,[1],0%
same,EOSINOPHIL,[1],0.33%
same,ERYTHROCYTE COUNT,[1],5.75 x10E6/uL
same,HEMATOCRIT,[1],36.93%
same,HEMOGLOBIN,[1],14.13 G/DL
same,LEUKOCYTE COUNT,[1],14 x10E3/uL
same,LYMPHOCYTE,[1],61.67%
same,MEAN CORPUSCULAR HEMOGLOBIN,[1],24.7 pg
same,MEAN CORPUSCULAR HEMOGLOBIN CONCENTRATION,[1],38.27 G/DL
same,MEAN CORPUSCULAR VOLUME,[1],64.53 fL
same,MONOCYTE,[1],2.33%
same,NEUTROPHIL,[1],35.67%
same,NUCLEATED RED BLOOD CELLS,[1],0.33 /100WBC
same,PLATELET COUNT,[1],1172.33 x10E3/uL
same,ALANINE AMINOTRANSFERASE,[1],38.67 u/L
same,ALBUMIN,[1],4 G/DL
same,ALKALINE PHOSPHATASE,[1],218 u/L
same,ASPARTATE AMINOTRANSFERASE,[1],93 u/L
same,BLOOD UREA NITROGEN,[1],15.67 mg/dL
same,CARBON DIOXIDE,[1],25 mmol/L
same,CHLORIDE,[1],99.67 MEQ/L
same,CHOLESTEROL,[1],85.33 mg/dL
same,CREATINE PHOSPHOKINASE,[1],273 u/L
same,CREATININE,[1],0.19 mg/dL
same,GLUCOSE,[1],119.67 mg/dL
same,LACTATE DEHYDROGENASE,[1],381 u/L
same,LIPASE,[1],8.33 u/L
same,PHOSPHORUS,[1],12.67 mg/dL
same,POTASSIUM,[1],6.05 MEQ/L
same,SODIUM,[1],144.53 MEQ/L
same,TOTAL BILIRUBIN,[1],0.1 mg/dL
same,TOTAL PROTEIN,[1],6.3 G/DL
same,URIC ACID,[1],1.7 mg/dL
same,ABSOLUTE BASOPHIL,[2],0 CELLS/uL
same,ABSOLUTE EOSINOPHIL,[2],61.33 CELLS/uL
same,ABSOLUTE LYMPHOCYTE,[2],15719.67 CELLS/uL
same,ABSOLUTE MONOCYTE,[2],721.33 CELLS/uL
same,ABSOLUTE SEGMENTED NEUTROPHIL,[2],1931 CELLS/uL
same,BASOPHIL,[2],0%
same,EOSINOPHIL,[2],0.33%
same,ERYTHROCYTE COUNT,[2],6.73 x10E6/uL
same,HEMATOCRIT,[2],40.8%
same,HEMOGLOBIN,[2],16.17 G/DL
same,LEUKOCYTE COUNT,[2],18.43 x10E3/uL
same,LYMPHOCYTE,[2],84.33%
same,MEAN CORPUSCULAR HEMOGLOBIN,[2],24 pg
same,MEAN CORPUSCULAR HEMOGLOBIN CONCENTRATION,[2],39.67 G/DL
same,MEAN CORPUSCULAR VOLUME,[2],60.73 fL
same,MONOCYTE,[2],4%
same,NEUTROPHIL,[2],11.33%
same,NUCLEATED RED BLOOD CELLS,[2],0.33 /100WBC
same,PLATELET COUNT,[2],1207.33 x10E3/uL
same,ALANINE AMINOTRANSFERASE,[2],32.67 u/L
same,ALBUMIN,[2],3.77 G/DL
same,ALKALINE PHOSPHATASE,[2],216 u/L
same,ASPARTATE AMINOTRANSFERASE,[2],95.67 u/L
same,BLOOD UREA NITROGEN,[2],30.67 mg/dL
same,CARBON DIOXIDE,[2],29.33 mmol/L
same,CHLORIDE,[2],97 MEQ/L
same,CHOLESTEROL,[2],84.33 mg/dL
same,CREATINE PHOSPHOKINASE,[2],292 u/L
same,CREATININE,[2],0.31 mg/dL
same,GLUCOSE,[2],184 mg/dL
same,LACTATE DEHYDROGENASE,[2],195.33 u/L
same,LIPASE,[2],8 u/L
same,PHOSPHORUS,[2],12.17 mg/dL
same,POTASSIUM,[2],6.13 MEQ/L
same,SODIUM,[2],142.43 MEQ/L
same,TOTAL BILIRUBIN,[2],0.1 mg/dL
same,TOTAL PROTEIN,[2],6.37 G/DL
same,URIC ACID,[2],2.97 mg/dL
same,ABSOLUTE BASOPHIL,[3],0 CELLS/uL
same,ABSOLUTE EOSINOPHIL,[3],0 CELLS/uL
same,ABSOLUTE LYMPHOCYTE,[3],13778.67 CELLS/uL
same,ABSOLUTE MONOCYTE,[3],303 CELLS/uL
same,ABSOLUTE SEGMENTED NEUTROPHIL,[3],1018.33 CELLS/uL
same,BASOPHIL,[3],0%
same,EOSINOPHIL,[3],0%
same,ERYTHROCYTE COUNT,[3],5.26 x10E6/uL
same,HEMATOCRIT,[3],33.23%
same,HEMOGLOBIN,[3],13.23 G/DL
same,LEUKOCYTE COUNT,[3],15.1 x10E3/uL
same,LYMPHOCYTE,[3],91.33%
same,MEAN CORPUSCULAR HEMOGLOBIN,[3],25.17 pg
same,MEAN CORPUSCULAR HEMOGLOBIN CONCENTRATION,[3],39.83 G/DL
same,MEAN CORPUSCULAR VOLUME,[3],63.27 fL
same,MONOCYTE,[3],2%
same,NEUTROPHIL,[3],6.67%
same,NUCLEATED RED BLOOD CELLS,[3],0.33 /100WBC
same,PLATELET COUNT,[3],1338.67 x10E3/uL
same,ALANINE AMINOTRANSFERASE,[3],64.33 u/L
same,ALBUMIN,[3],4.5 G/DL
same,ALKALINE PHOSPHATASE,[3],325 u/L
same,ASPARTATE AMINOTRANSFERASE,[3],90.33 u/L
same,BLOOD UREA NITROGEN,[3],18 mg/dL
same,CARBON DIOXIDE,[3],24 mmol/L
same,CHLORIDE,[3],102.33 MEQ/L
same,CHOLESTEROL,[3],85.67 mg/dL
same,CREATINE PHOSPHOKINASE,[3],170.67 u/L
same,CREATININE,[3],0.22 mg/dL
same,GLUCOSE,[3],154.33 mg/dL
same,LACTATE DEHYDROGENASE,[3],246.33 u/L
same,LIPASE,[3],9.33 u/L
same,PHOSPHORUS,[3],15.17 mg/dL
same,POTASSIUM,[3],7.26 MEQ/L
same,SODIUM,[3],149.17 MEQ/L
same,TOTAL BILIRUBIN,[3],0.33 mg/dL
same,TOTAL PROTEIN,[3],6.3 G/DL
same,URIC ACID,[3],1.63 mg/dL
same,ABSOLUTE BASOPHIL,[4],0 CELLS/uL
same,ABSOLUTE EOSINOPHIL,[4],46.67 CELLS/uL
same,ABSOLUTE LYMPHOCYTE,[4],13112 CELLS/uL
same,ABSOLUTE MONOCYTE,[4],47.33 CELLS/uL
same,ABSOLUTE SEGMENTED NEUTROPHIL,[4],1427.33 CELLS/uL
same,BASOPHIL,[4],0%
same,EOSINOPHIL,[4],0.33%
same,ERYTHROCYTE COUNT,[4],5.69 x10E6/uL
same,HEMATOCRIT,[4],37.6%
same,HEMOGLOBIN,[4],14.5 G/DL
same,LEUKOCYTE COUNT,[4],14.63 x10E3/uL
same,LYMPHOCYTE,[4],89.67%
same,MEAN CORPUSCULAR HEMOGLOBIN,[4],25.53 pg
same,MEAN CORPUSCULAR HEMOGLOBIN CONCENTRATION,[4],38.57 G/DL
same,MEAN CORPUSCULAR VOLUME,[4],66.17 fL
same,MONOCYTE,[4],0.33%
same,NEUTROPHIL,[4],9.67%
same,NUCLEATED RED BLOOD CELLS,[4],0.33 /100WBC
same,PLATELET COUNT,[4],1071 x10E3/uL
same,ALANINE AMINOTRANSFERASE,[4],53 u/L
same,ALBUMIN,[4],4.6 G/DL
same,ALKALINE PHOSPHATASE,[4],301.33 u/L
same,ASPARTATE AMINOTRANSFERASE,[4],84 u/L
same,BLOOD UREA NITROGEN,[4],19.67 mg/dL
same,CARBON DIOXIDE,[4],31.67 mmol/L
same,CHLORIDE,[4],97.33 MEQ/L
same,CHOLESTEROL,[4],72.33 mg/dL
same,CREATINE PHOSPHOKINASE,[4],267.33 u/L
same,CREATININE,[4],0.24 mg/dL
same,GLUCOSE,[4],143.33 mg/dL
same,LACTATE DEHYDROGENASE,[4],287 u/L
same,LIPASE,[4],8.67 u/L
same,PHOSPHORUS,[4],11.33 mg/dL
same,POTASSIUM,[4],6.64 MEQ/L
same,SODIUM,[4],141.97 MEQ/L
same,TOTAL BILIRUBIN,[4],0.2 mg/dL
same,URIC ACID,[4],1.67 mg/dL

# — ChEMBL document CHEMBL3885881, “DrugMatrix”
